Data from ChEMBL document CHEMBL1130950, “Synthesis and structure-activity relationship of substituted 1,2,3,4-tetrahydroisoquinolines as N-type calcium channel blockers” (Bioorg Med Chem Lett, 1998).
pIC50: −log10 of the molar value.

Target: Voltage-dependent N-type calcium channel subunit alpha-1B (Homo sapiens, UniProt Q00975)
Assay: Inhibition of N-type calcium channel in IMR-32 human neuroblastoma cells
Format: cell-based

Chain of Voltage-dependent N-type calcium channel subunit alpha-1B (Q00975 whole entry): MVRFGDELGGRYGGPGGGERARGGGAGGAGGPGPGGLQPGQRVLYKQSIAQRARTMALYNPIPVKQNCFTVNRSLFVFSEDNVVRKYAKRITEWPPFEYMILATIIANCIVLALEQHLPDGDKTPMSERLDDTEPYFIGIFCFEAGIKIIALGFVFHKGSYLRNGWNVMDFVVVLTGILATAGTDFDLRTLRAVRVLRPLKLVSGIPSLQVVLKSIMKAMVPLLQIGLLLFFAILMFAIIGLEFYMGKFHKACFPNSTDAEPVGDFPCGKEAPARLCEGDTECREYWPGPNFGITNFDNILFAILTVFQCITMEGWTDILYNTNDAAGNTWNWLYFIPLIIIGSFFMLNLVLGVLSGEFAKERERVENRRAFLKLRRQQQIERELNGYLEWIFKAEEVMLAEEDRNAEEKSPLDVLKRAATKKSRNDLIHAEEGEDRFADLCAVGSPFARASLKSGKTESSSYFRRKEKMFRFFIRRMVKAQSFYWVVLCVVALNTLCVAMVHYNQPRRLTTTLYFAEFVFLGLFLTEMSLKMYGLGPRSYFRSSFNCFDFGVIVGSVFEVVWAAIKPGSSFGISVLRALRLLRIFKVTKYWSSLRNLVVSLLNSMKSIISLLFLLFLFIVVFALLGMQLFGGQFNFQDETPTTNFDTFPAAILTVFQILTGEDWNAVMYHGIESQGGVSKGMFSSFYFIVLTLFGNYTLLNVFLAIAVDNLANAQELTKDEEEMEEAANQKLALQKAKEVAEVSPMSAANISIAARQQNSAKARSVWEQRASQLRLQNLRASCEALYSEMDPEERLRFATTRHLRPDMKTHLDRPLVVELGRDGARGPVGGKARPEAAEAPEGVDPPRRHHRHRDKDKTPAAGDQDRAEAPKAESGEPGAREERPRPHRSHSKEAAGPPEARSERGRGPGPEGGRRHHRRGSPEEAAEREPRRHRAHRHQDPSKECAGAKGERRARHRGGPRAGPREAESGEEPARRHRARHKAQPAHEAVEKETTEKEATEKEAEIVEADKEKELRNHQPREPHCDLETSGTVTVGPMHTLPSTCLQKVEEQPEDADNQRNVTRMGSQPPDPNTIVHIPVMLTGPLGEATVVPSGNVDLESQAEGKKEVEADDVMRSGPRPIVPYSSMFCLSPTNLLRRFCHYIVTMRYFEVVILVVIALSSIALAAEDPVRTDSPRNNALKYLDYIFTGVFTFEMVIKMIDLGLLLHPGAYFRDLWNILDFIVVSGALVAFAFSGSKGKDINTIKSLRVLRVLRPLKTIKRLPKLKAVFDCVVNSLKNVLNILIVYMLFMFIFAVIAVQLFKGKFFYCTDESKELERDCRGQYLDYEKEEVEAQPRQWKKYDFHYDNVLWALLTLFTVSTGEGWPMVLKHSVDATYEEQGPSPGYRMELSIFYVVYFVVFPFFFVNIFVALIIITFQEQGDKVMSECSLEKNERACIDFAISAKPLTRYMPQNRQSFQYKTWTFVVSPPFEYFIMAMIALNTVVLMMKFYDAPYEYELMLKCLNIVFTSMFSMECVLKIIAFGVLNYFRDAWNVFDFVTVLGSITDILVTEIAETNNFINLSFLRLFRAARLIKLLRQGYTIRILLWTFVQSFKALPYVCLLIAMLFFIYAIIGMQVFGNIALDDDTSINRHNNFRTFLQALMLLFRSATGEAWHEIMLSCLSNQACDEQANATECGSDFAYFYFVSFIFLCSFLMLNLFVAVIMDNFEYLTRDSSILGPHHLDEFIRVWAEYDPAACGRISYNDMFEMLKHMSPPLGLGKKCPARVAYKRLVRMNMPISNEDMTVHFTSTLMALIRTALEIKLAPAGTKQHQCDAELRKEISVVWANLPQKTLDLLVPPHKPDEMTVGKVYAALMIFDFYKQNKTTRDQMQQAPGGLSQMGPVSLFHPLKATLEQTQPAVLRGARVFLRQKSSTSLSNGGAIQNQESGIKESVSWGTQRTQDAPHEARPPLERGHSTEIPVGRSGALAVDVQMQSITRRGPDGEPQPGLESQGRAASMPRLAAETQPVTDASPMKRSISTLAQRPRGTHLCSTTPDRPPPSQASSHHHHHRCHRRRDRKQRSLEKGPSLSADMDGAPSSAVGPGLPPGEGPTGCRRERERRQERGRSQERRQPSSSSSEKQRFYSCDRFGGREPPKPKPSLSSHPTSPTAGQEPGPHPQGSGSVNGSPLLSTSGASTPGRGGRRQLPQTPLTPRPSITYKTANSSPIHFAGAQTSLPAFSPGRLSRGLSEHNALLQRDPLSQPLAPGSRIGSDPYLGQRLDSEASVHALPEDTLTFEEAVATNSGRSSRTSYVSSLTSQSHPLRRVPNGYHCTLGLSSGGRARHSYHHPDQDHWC

Compound | pIC50
Oc1c(CN2CCCCCC2)ccc2c1CCN(CCCCCC(c1ccccc1)c1ccccc1)C2 | 5.96
Oc1c(CN2CCCCCC2)ccc2c1CCN(CCCCC=C(c1ccccc1)c1ccccc1)C2 | 5.60
Oc1c(CN2CCCCC2)cc(Cc2cc(CN3CCCCC3)c(O)c3ncccc23)c2ccncc12 | 5.36
COc1ccc(CCCCN2CCc3c(ccc(CN4CCCCCC4)c3O)C2)cc1 | 5.00
Oc1c(CN2CCCCCC2)ccc2c1CCN(CCCC(c1ccccc1)c1ccccc1)C2 | 6.34
Oc1c(CN2CCCCCC2)ccc2cnccc12 | 4.46
Oc1c(CN2CCCCCC2)ccc2c1CCN(CCCCc1ccccc1)C2 | 4.82
CN1CCc2c(ccc(CN3CCCCCC3)c2O)C1 | < 4.00
Oc1c(CN2CCCCCC2)ccc2c1CCN(CCC(c1ccccc1)c1ccccc1)C2 | 5.13
Oc1c(CN2CCCCCC2)ccc2c1CCN(CCCCc1ccc(F)cc1)C2 | 5.29
Oc1c(CN2CCCCCC2)ccc2c1CCN(CCCCC(c1ccccc1)c1ccccc1)C2 | 5.32
